Reference: patent US11957683B2, “Bicyclic compounds” (Aligos Therapeutics, Inc., priority 2021, dated 2024)
Where two headings read alike, the source gives them in different places.

What was measured:
[1] = Cell viability by CellTiter-Glo 2.0 (intracellular ATP) in HepG2.117 cells; format: cell-based; settings: human, CellTiter-Glo 2.0, HepG2.117 cells, 3 days incubation
Description: (§1) The following assay procedure describes the HBV antiviral assay, using HepG2.117 cells, which carry a stably integrated genotype D HBV genome under the control of a Tet-off promoter, and intracellular HBV DNA quantification as endpoint. Cell viability is assessed in parallel by measuring the intracellular ATP content using CellTiter-Glo 2.0 (Promega).
(§2) On day 1, medium is removed from each well, the test articles are diluted in culture medium without doxcycyline and 100 μL was added to cell culture wells (9 concentrations, 4-fold dilution). For each plate, 6 untreated (merely DMSO) wells are included. The final concentration of DMSO in the culture medium is 2%. Each plate is prepared in duplicate (one for HBV DNA extraction, one for CellTiter-Glo 2.0 measurement). The cells are incubated at 37° C. and 5% CO2 for 3 days.
(§3) On day 4, cell viability is assessed using CellTiter-Glo 2.0 and cell lysates are prepared for HBV DNA extraction and subsequent quantification by qPCR.
Using the other plates, the cell viability is quantified by CellTiter-Glo 2.0 according to the manufacturer's manual. In brief, 100 μL of reagent solution is added to the culture plates and shaken for 2′. The plates are incubated at rt for 10 min and luminescence signal is subsequently measured on a VarioSkan Lux (ThermoFisher) plate reader.
(§4) Cell viability is calculated as follows: % Cell viability=(luminescence value of test sample)/(average luminescence value of 2% DMSO control)×100%. HBV DNA inhibition was calculated as follows: 100−(HBV DNA copy number of test sample)/(average HBV DNA copy number of 2% DMSO control)×100%. No normalization to entecavir is required due to the excellent dynamic window of this assay. The CC50, EC50 and EC90 values were determined by dose-response curves fitted using non-linear regression.

[2] = tested on: HBV; test: HBV-DNA antiviral assay using HepG2.117 cells; format: cell-based, HBV genotype D; settings: Hepatitis B virus
Description: as §1
On day 0, HepG2.117 cells (which are maintained in routine cell culture with doxycycline present in the medium at a final concentration of 1 μg/mL) are seeded in 96-well plates (white with clear bottom) at a density of 2.0×10^4 cells/well (0.1 mL/well) in medium without doxycycline to induce pgRNA transcription and subsequent formation of HBV particles. The cells are incubated at 37° C. and 5% CO2.
as §2, §3
Medium is removed from each well and 100 μL of 0.33% NP-40 in H2O was added to each well. Plates are sealed, incubated at 4° C. for 5 mins, vortexed extensively and centrifuged briefly. Next, 35 μL of lysate is added to 65 μL QuickExtract DNA Extraction Solution (Epicentre) in a PCR plate for each well. PCR plate is incubated at 65° C. for 6 mins, 98° C. for 2 mins and finally cooled to 4° C. HBV DNA is then quantified by qPCR with HBV-specific primers and probes as specified in Table 2 using the Bio-Rad SSOAdvanced Universal Probes Supermix on a CFX96 machine (Bio-Rad). The PCR cycle program consisted of 95° C. for 3 mins, followed by 40 cycles at 95° C. for 10 sec and 60° C. for 30 sec.
A DNA standard is prepared by dilution of an IDT gBlock corresponding to the amplicon with concentrations ranging from 10^2 to 10^8 copies/input (i.e., per 4 μL) and used to generate a standard curve by plotting Cq values vs. HBV DNA standard concentration. The quantity of HBV DNA in each sample is determined by interpolating from the standard curve.
as §4

[3] = 72 h, HBV DNA inhibition, intracellular HBV DNA by qPCR, HepG2.117 cells, 3 days incubation, read-out: EC50

Structure (SMILES): C=C[C@H](C)Nc1nc2c(c(=O)n1-c1ccc(C(=O)NC)cc1Cl)C[C@@H](C)N(C(=O)c1ccc(Br)c(C(F)(F)F)c1)C2 (atropisomer, axis not shown) [Compound 44, 4-[(6R)-7-[4-bromo-3-(trifluoromethyl)benzoyl]-6-methyl-2-[[(1S)-1-methylallyl]amino]-4-oxo-6,8-dihydro-5H-pyrido[3,4-d]pyrimidin-3-yl]-3-chloro-N-methyl-benzamide]
- CC50 at 3 days [1]: > 50 µM
- EC50 [2, 3]: < 50 nM

Structure (SMILES): C=CC(C)Nc1nc2c(c(=O)n1-c1ccc(C(=O)NC)cc1)C[C@@H](C)N(C(=O)c1ccc(Br)c(C(F)(F)F)c1)C2 (single isomer, unassigned) [Compound 2a]
- CC50 at 3 days [1]: > 0.5 µM
- EC50 [2, 3]: < 50 nM

Structure (SMILES): C=CC(C)Nc1nc2c(c(=O)n1-c1ccc(-c3[nH]nnc3C)cc1)C[C@@H](C)N(C(=O)c1ccc(Br)c(C(F)(F)F)c1)C2 (single isomer, unassigned) [Compound 3a]
- CC50 at 3 days [1]: > 0.5 µM
- EC50 [2, 3]: < 50 nM

Structure (SMILES): C=C[C@H](C)Nc1nc2c(c(=O)n1-c1ccc(OCC(C)O)cc1)C[C@@H](C)N(C(=O)c1ccc(Br)c(C(F)(F)F)c1)C2 (stereo in doubt) [Compound 31, (R)-7-(4-bromo-3-(trifluoromethyl)benzoyl)-2-(((S)-but-3-en-2-yl)amino)-3-(4-((S)-2-hydroxypropoxy)phenyl)-6-methyl-5,6,7,8-tetrahydropyrido[3,4-d]pyrimidin-4(3H)-one]
- CC50 at 3 days [1]: 29.6 µM
- EC50 [2, 3]: < 50 nM

Structure (SMILES): C=CC(C)(C)Nc1nc2c(c(=O)n1-c1ccc(C(=O)NC)cc1)C[C@@H](C)N(C(=O)c1ccc(Br)c(C(F)(F)F)c1)C2 [Compound 1, (R)-4-(7-(4-bromo-3-(trifluoromethyl)benzoyl)-6-methyl-2-((2-methylbut-3-en-2-yl)amino)-4-oxo-5,6,7,8-tetrahydropyrido[3,4-d]pyrimidin-3(4H)-yl)-N-methylbenzamide]
- CC50 at 3 days [1]: > 0.5 µM
- EC50 [2, 3]: < 50 nM

Structure (SMILES): C=C[C@H](C)Nc1nc2c(c(=O)n1-c1ccc(-c3nnc(C)[nH]3)cc1)C[C@@H](C)N(C(=O)c1ccc(Br)c(C(F)(F)F)c1)C2 [Compound 4a, (R)-7-(4-bromo-3-(trifluoromethyl)benzoyl)-2-(((S)-but-3-en-2-yl)amino)-6-methyl-3-(4-(5-methyl-4H-1,2,4-triazol-3-yl)phenyl)-5,6,7,8-tetrahydropyrido[3,4-d]pyrimidin-4(3H)-one]
- CC50 at 3 days [1]: > 0.5 µM
- EC50 ([2]; HepG2.117, 72 h): < 50 nM

Structure (SMILES): C=CCNc1nc2c(c(=O)n1-c1ccc(C(=O)NC)cc1)C[C@@H](C)N(C(=O)c1ccc(Br)c(C(F)(F)F)c1)C2 [Compound 5]
- CC50 at 3 days [1]: > 50 µM
- EC50 [2, 3]: < 50 nM

Structure (SMILES): C=CCN(C)c1nc2c(c(=O)n1-c1ccc(C(=O)NC)cc1)C[C@@H](C)N(C(=O)c1ccc(Br)c(C(F)(F)F)c1)C2 [Compound 6]
- CC50 at 3 days [1]: > 0.5 µM
- EC50 [2, 3]: < 50 nM

Structure (SMILES): CNC(=O)c1ccc(-n2c(NCC=C(C)C)nc3c(c2=O)C[C@@H](C)N(C(=O)c2ccc(Br)c(C(F)(F)F)c2)C3)cc1 [Compound 7]
- CC50 at 3 days [1]: 7.35 µM
- EC50 [2, 3]: < 50 nM

Structure (SMILES): C=CC1(Nc2nc3c(c(=O)n2-c2ccc(C(=O)NC)cc2)C[C@@H](C)N(C(=O)c2ccc(Br)c(C(F)(F)F)c2)C3)CCC1 [Compound 8]
- CC50 at 3 days [1]: 7.33 µM
- EC50 [2, 3]: < 50 nM

Structure (SMILES): C=C[C@H](C)Nc1nc2c(c(=O)n1-c1cc(C(=O)NC)n(C)n1)C[C@@H](C)N(C(=O)c1ccc(Br)c(C(F)(F)F)c1)C2 [Compound 9, 3-((R)-7-(4-bromo-3-(trifluoromethyl)benzoyl)-2-(((S)-but-3-en-2-yl)amino)-6-methyl-4-oxo-5,6,7,8-tetrahydropyrido[3,4-d]pyrimidin-3(4H)-yl)-N,1-dimethyl-1H-pyrazole-5-carboxamide]
- CC50 at 3 days [1]: > 50 µM
- EC50 [2, 3]: < 50 nM

Structure (SMILES): C=CC(C)N(C)c1nc2c(c(=O)n1-c1ccc(C(=O)NC)cc1)C[C@@H](C)N(C(=O)c1ccc(Br)c(C(F)(F)F)c1)C2 (some centres unmarked) [Compound 10a]
- CC50 at 3 days [1]: > 50 µM
- EC50 [2, 3]: < 50 nM

Structure (SMILES): C=CC(Nc1nc2c(c(=O)n1-c1ccc(C(=O)NC)cc1)C[C@@H](C)N(C(=O)c1ccc(Br)c(C(F)(F)F)c1)C2)C1CC1 (some centres unmarked) [Compound 11a]
- CC50 at 3 days [1]: > 50 µM
- EC50 [2, 3]: < 50 nM
